Legend:
Type in all cases: toxicity, cell-based
HEK-293T = assay: Incucyte cell viability with HEK293T; conditions: human, 10 µM, compound concentration 10 uM
Fibroblast = assay: Incucyte cell viability with human fibroblast; conditions: 10 µM, compound concentration 10 uM
U2OS = assay: Incucyte cell viability with U2OS; conditions: human, 10 µM, compound concentration 10 uM
Also: unitless GR value; below 1 slowed growth and below 0 cell loss.

Row | Structure (SMILES) | Growth Rate (HEK-293T; 6 h, replicate number 2) | Growth Rate (Fibroblast; 0 h, replicate number 1) | Growth Rate (Fibroblast; 18 h, replicate number 2) | Growth Rate (Fibroblast; 24 h, replicate number 1) | Growth Rate (U2OS; 6 h, replicate number 1) | Growth Rate (U2OS; 12 h, replicate number 1) | Growth Rate (U2OS; 12 h, replicate number 2) | Growth Rate (U2OS; 18 h, replicate number 1) | Growth Rate (U2OS; 24 h, replicate number 1) | Growth Rate (U2OS; 24 h, replicate number 2) | Growth Rate (Fibroblast; 0 h, replicate number 2) | Growth Rate (Fibroblast; 6 h, replicate number 2) | Growth Rate (Fibroblast; 12 h, replicate number 1) | Growth Rate (Fibroblast; 12 h, replicate number 2) | Growth Rate (Fibroblast; 18 h, replicate number 1) | Growth Rate (U2OS; 0 h, replicate number 1) | Growth Rate (U2OS; 6 h, replicate number 2) | Growth Rate (U2OS; 18 h, replicate number 2) | Growth Rate (HEK-293T; 0 h, replicate number 2) | Growth Rate (Fibroblast; 24 h, replicate number 2) | also measured
1 | CC(C)[C@@H]1CC[C@@H](C)C[C@@H]1P(=O)(c1ccccc1)c1ccccc1 | 0.56 | 0.25 | 0.92 | 0.9 | 0.44 | 0.44 | 0.96 | 0.78 | 0.74 | 1 | – | – | – | – | – | – | – | – | – | – | Growth Rate (HEK-293T; 0 h, replicate number 1): 0.49
2 | CC1CCN(c2ccnc(NCc3cn(C)cn3)n2)CC1 [TP-040] | 0.85 | – | – | 0.65 | – | – | 0.8 | – | – | 0.84 | -0.66 | 0.66 | 0.71 | 0.76 | 0.71 | -1 | 0.76 | 0.86 | – | – | Growth Rate (Fibroblast; 6 h, replicate number 1): 0.15; Growth Rate (U2OS; 0 h, replicate number 2): 0.69
3 | Cc1ccc(NS(=O)(=O)c2ccc3c(c2)C2C=CCC2C(c2ccc(C(=O)O)cc2)N3)cc1C (stereo not given) | – | – | – | 0.65 | 0.79 | 0.82 | – | 0.87 | 0.93 | 0.91 | 0.82 | 0.01 | 0.86 | 0.36 | 0.83 | 0.88 | – | 0.99 | -0.87 | 0.72 | Growth Rate (HEK-293T; 12 h, replicate number 1): 0.89; Growth Rate (HEK-293T; 18 h, replicate number 1): 0.79; Growth Rate (Fibroblast; 6 h, replicate number 1): -0.66
4 | Nc1nc(-c2nn(Cc3ccccc3F)c3ncccc23)ncc1C1CC1 | – | – | – | 0.73 | 0.69 | – | – | – | 0.68 | 0.71 | -0.93 | – | – | – | 0.69 | – | – | 0.87 | 0.14 | 0.8 | Growth Rate (Fibroblast; 6 h, replicate number 1): 0.35
5 | COc1cc(C(=O)O)ncc1C#Cc1ccccc1NS(=O)(=O)c1cccc2c(N(C)C)ccnc12 [MSC-0516] | – | -1 | 0.99 | – | 0.68 | 0.92 | 0.75 | 0.8 | 0.89 | 0.9 | – | 0.44 | – | 0.77 | – | – | 0.86 | 0.91 | -0.98 | 0.93 | Growth Rate (HEK-293T; 0 h, replicate number 1): -0.31; Growth Rate (U2OS; 0 h, replicate number 2): 0.61
6 | Cc1cccc(F)c1C(=O)Nc1cnc(-c2cc3c(cc2Cl)OC(F)(F)O3)cn1 [ZEGOCRACTIN] | -0.48 | – | 0.4 | 0.84 | 0.26 | 0.45 | 0.78 | 0.72 | 0.8 | 0.92 | -0.42 | -0.57 | -0.81 | 0.2 | 0.77 | 0.13 | 0.28 | 0.9 | – | 0.26 | Growth Rate (HEK-293T; 6 h, replicate number 1): -0.06; Growth Rate (HEK-293T; 12 h, replicate number 1): 0.19; Growth Rate (HEK-293T; 12 h, replicate number 2): -0.06; Growth Rate (HEK-293T; 18 h, replicate number 1): 0.24; Growth Rate (HEK-293T; 18 h, replicate number 2): 0.31; Growth Rate (HEK-293T; 24 h, replicate number 1): 0.34; Growth Rate (U2OS; 0 h, replicate number 2): -0.79
7 | Nc1ncnc2[nH]c(-c3ccccc3)nc12 | 0.23 | – | – | – | – | – | 0.9 | – | – | – | 0.44 | 0.95 | 0.88 | 0.9 | – | -1 | 0.92 | 0.95 | – | – | Growth Rate (HEK-293T; 6 h, replicate number 1): 0.83; Growth Rate (HEK-293T; 12 h, replicate number 1): 0.87; Growth Rate (HEK-293T; 12 h, replicate number 2): 0.55; Growth Rate (HEK-293T; 18 h, replicate number 1): 0.8; Growth Rate (HEK-293T; 18 h, replicate number 2): 0.68; Growth Rate (HEK-293T; 24 h, replicate number 1): 0.85; Growth Rate (HEK-293T; 24 h, replicate number 2): 0.78; Growth Rate (U2OS; 0 h, replicate number 2): 0.55
8 | CN(C)CCOc1ccc(/C(=C(/CCCO)c2ccccc2)c2ccc(O)cc2)cc1 | 0.71 | 0.55 | – | 0.02 | 0.76 | – | – | 1 | – | – | -0.4 | – | – | – | – | – | – | – | – | – | Growth Rate (U2OS; 0 h, replicate number 2): -0.67
9 | CC(C)(O)c1coc(S(=O)(=O)NC(=O)Nc2c3c(cc4c2CCC4)CCC3)c1 | – | – | – | 0.99 | 0.92 | 0.88 | 0.89 | – | – | 0.94 | 0.57 | – | – | – | – | 0.85 | – | 0.99 | 0.34 | – | Growth Rate (HEK-293T; 0 h, replicate number 1): -0.08
10 | CN(C)[C@H]1C[C@H](n2cnc(-c3ccc(F)cn3)c2-c2ccnc3[nH]ccc23)C1 | 0.95 | – | – | – | – | – | 0.81 | – | – | 0.85 | 0.15 | – | 0.89 | – | 0.84 | 0.83 | 0.94 | 0.94 | -0.95 | – | Growth Rate (HEK-293T; 0 h, replicate number 1): 0.9
11 | O=C(Nc1ccc(Cl)c(-c2ccccn2)c1)c1cccc(COc2ccc(Br)cc2CNCCO)c1.O=CO | -0.56 | -0.98 | -0.28 | 0.25 | 0.38 | 0.61 | 0.6 | 0.3 | 0.53 | 0.33 | 0.59 | 0.09 | 0.51 | -0.14 | 0.29 | – | 0.78 | 0.36 | – | -0.36 | Growth Rate (HEK-293T; 6 h, replicate number 1): -0.57; Growth Rate (HEK-293T; 12 h, replicate number 1): -0.44; Growth Rate (HEK-293T; 12 h, replicate number 2): -0.32; Growth Rate (HEK-293T; 18 h, replicate number 1): -0.3; Growth Rate (HEK-293T; 18 h, replicate number 2): -0.2; Growth Rate (HEK-293T; 24 h, replicate number 1): -0.2; Growth Rate (HEK-293T; 24 h, replicate number 2): -0.07
12 | Cc1cc(=O)oc2cc(NC(=O)[C@H](Cc3ccc(I)cc3)NC(=O)[C@H]3N[C@@H]4CC[C@H]3C4)ccc12.O=C(O)C(F)(F)F | – | -1 | 0.35 | – | 0.26 | 0.89 | – | 0.97 | 0.88 | 0.85 | – | -0.13 | – | 0.19 | – | -0.48 | – | 0.92 | – | 0.61 | Growth Rate (HEK-293T; 6 h, replicate number 1): -0.02; Growth Rate (HEK-293T; 12 h, replicate number 1): 0.55; Growth Rate (HEK-293T; 18 h, replicate number 1): 0.61; Growth Rate (HEK-293T; 24 h, replicate number 1): 0.76
13 | C[C@H](C[C@H](N)C(=O)O)C(=O)O [2S,4R-4-METHYLGLUTAMATE] | – | – | – | 0.42 | – | – | 0.89 | – | – | 0.94 | -0.67 | 0.92 | – | 0.66 | – | – | 0.65 | 0.82 | 0.9 | 0.97 | –
